Results taken from US9506032B2, “Engineered biological pacemakers” (The United States of America, as represented by the …, priority 2009, dated 2016).

How the values were obtained:
Format in all cases: cell-based, Mouse
saponin-skinned ESCs = experiment: Local Ca2+ releases (LCRs) in saponin-skinned ESCs, confocal line-scan Ca2+ imaging; conditions: for LCRs (effect of drug): skinned ESCs, 150 nmol/L free [Ca2+]
Text: (§1) Mouse ES cells of line R1 were differentiated into cardiac cells using the “hanging drop” technique. ESCs were isolated from in vitro-grown embryoid bodies by microdissection followed by collagenase treatment. […] At day 2, EBs were transferred into bacteriological petri dishes and cultured in suspension until day 5. […] Individual spontaneously beating ESCs were isolated by microdissection and collagenase treatment.
(§2) Fluo-4 measurements are presented in terms of F/F0 (normalized Ca^2+ signal). […] were analyzed by programs developed using Delfi-7 software. The duration and width of LCRs were measured as the time at half-maximal amplitude of the normalized signal.

[1] = test system: spontaneously beating ESCs; experiment: Spontaneous action potentials and Ca2+ signals in intact spontaneously beating ESCs (patch clamp with confocal imaging); conditions: for LCRs (effect of intervention) / spontaneous AP firing and Ca2+ transients: intact spontaneously beating ESCs (FIG. 6)
Text: as §1
ESCs differentiated in vitro for 9 to 20 days after plating of 7 days old embryoid bodies were studied during continuous superfusion with solution containing in mmol/L: 140 NaCl, 5.4 KCl, 5 HEPES, 2 MgCl2, 1.8 CaCl2, 10 glucose, (pH adjusted to 7.4 with NaOH). Selection of the cells for patch-clamp technique was based on spontaneous beating. Action potentials were measured at physiological temperature (35±2° C.) with standard current-clamp technique (Axopatch 200, Axon Instruments, Foster City, Calif., USA), pCLAMP7 software was used for data acquisition and analysis (Axon Instruments). Perforated patch-clamp technique was performed with β-escin added to the electrode solution. Patch pipette solution contained in mmol/L: 120 K-gluconate, 5 NaCl, 5 Mg-ATP, 5 HEPES, 20 KCl, 3 Na2ATP (pH adjusted to 7.2 with NaOH). […] Patch pipette filling solution contained (in mmol/L) 120 CsCl, 10 NaCl, 20 tetraethylammonium chloride, 5 MgATP, and 20 HEPES (pH 7.2 adjusted with CsOH), and 100 μmol/L fluo-4 pentapotassium salt (Molecular Probes). Four conditioning pulses of 100 ms and 0 mV were delivered at 1.0 Hz prior to each test voltage pulse to load the SR with Ca^2+.
In whole cell configuration, fluo-4 was added directly to the pipette solution.
as §2

[2] = test system: Na+/Ca2+ exchanger (NCX) current in ESCs; experiment: Inward NCX current spikes in ESCs voltage-clamped at -50 mV; conditions: voltage clamp −50 mV, Na+ substituted by Li+ inhibiting NCX; 10 to 20 pA in control
Method: ESCs differentiated in vitro for 9 to 20 days after plating of 7 days old embryoid bodies were studied during continuous superfusion with solution containing in mmol/L: 140 NaCl, 5.4 KCl, 5 HEPES, 2 MgCl2, 1.8 CaCl2, 10 glucose, (pH adjusted to 7.4 with NaOH). Selection of the cells for patch-clamp technique was based on spontaneous beating. Action potentials were measured at physiological temperature (35±2° C.) with standard current-clamp technique (Axopatch 200, Axon Instruments, Foster City, Calif., USA), pCLAMP7 software was used for data acquisition and analysis (Axon Instruments). Perforated patch-clamp technique was performed with β-escin added to the electrode solution. Patch pipette solution contained in mmol/L: 120 K-gluconate, 5 NaCl, 5 Mg-ATP, 5 HEPES, 20 KCl, 3 Na2ATP (pH adjusted to 7.2 with NaOH). Recording of L-type Ca^2+ current (ICaL) simultaneously with Ca^2+ signal imaging (see Example 3) were performed under whole cell voltage clamp. […]
When activation of ion channels and APs are disabled by voltage clamp at −50 mV, spontaneous LCRS for at least 5 s were observed (FIG. 4, Panel A). […] It was determined under the voltage clamp whether LCRs can cause the current spikes via NCX activation. […]

**Q.** With `CCCCNc1ccc(C(=O)OCCN(C)C)cc1` [tetracaine] as the compound, how does the “LCRs (effect of drug)” value (saponin-skinned ESCs; 1 mmol/L drug) read?
**A.** inhibited

**Q.** Which “LCRs (effect of intervention)” value [1] does the source give for `C/C=C(/C)C(=O)O[C@H]1C(C)=C2[C@H]([C@@H]1OC(=O)CCCCCCC)[C@@](C)(OC(C)=O)C[C@H](OC(=O)CCC)[C@@]1(O)[C@H]2OC(=O)[C@@]1(C)O` [thapsigargin] here?
**A.** inhibited

**Q.** And the “spontaneous AP firing and Ca2+ transients” value [1]?
**A.** became irregular, culminating in cessation of automaticity or in extremely rare and irregular beating

**Q.** And the “LCRs (effect of drug)” value (saponin-skinned ESCs; 10 μmol/L drug)?
**A.** inhibited

**Q.** Which “LCRs (effect of intervention)” value [1] does the source give for ryanodine here?
**A.** inhibited

**Q.** What about the “spontaneous AP firing and Ca2+ transients” value [1] of the same compound?
**A.** became irregular, culminating in cessation of automaticity or in extremely rare and irregular beating

**Q.** What about the “LCRs (effect of drug)” value (saponin-skinned ESCs; 10 μmol/L drug) of the same compound?
**A.** inhibited

**Q.** What does the source list for `Nc1ncnc2c1nc(Sc1ccc(Cl)cc1)n2[C@@H]1O[C@@H]2COP(=O)(O)O[C@H]2[C@H]1O` [CPT-cAMP]?
**A.** cycle length (CL) variability index (100%×CL standard deviation/CL mean) ([1]; cells with irregular beating, after 300 μmol/L CPT-cAMP, before 23.98+/−4.82%, P<0.05): 11.23+/−2.68%; rhythmicity of beating ([1]; irregularly beating ESCs, 300 μmol/L CPT-cAMP): converted irregularly beating ESCs to rhythmic pacemakers

**Q.** With `Nc1ncnc2c1ncn2[C@@H]1O[C@@H]2COP(=O)(O)O[C@H]2[C@H]1O` [cAMP, cyclic AMP] as the compound, how does the “local Ca2+ oscillators” value (saponin-skinned ESCs; saponin-skinned ESCs, stimulation with 20 μmol/L cAMP) read?
**A.** emergence of new local Ca^2+ oscillators in many cell locations

**Q.** For `CC(=O)OCOC(=O)CN(CC(=O)OCOC(C)=O)c1ccccc1OCCOc1ccccc1N(CC(=O)OCOC(C)=O)CC(=O)OCOC(C)=O` [BAPTA-AM], which “LCRs (effect of intervention)” value [1] is on record?
**A.** inhibited

**Q.** What about the “spontaneous AP firing and Ca2+ transients” value [1] of the same compound?
**A.** became irregular, culminating in cessation of automaticity or in extremely rare and irregular beating

**Q.** For `O=S(=O)(NCCNC/C=C/c1ccc(Br)cc1)c1cccc2cnccc12` [H89], which “APs / automaticity on PKA inhibition” value ([1]; spontaneously beating ESCs, 10 μmol/L) is on record?
**A.** irregUlar APs or cessation of automaticity

**Q.** `[Li+]` [Li^+] was tested. Which “high-amplitude inward current spikes” value [2] did it give?
**A.** disappeared

**Q.** And the “spontaneous excitation (APs)” value ([1]; Na+-free lithium solution applied ~1 s, zero-current clamp, rhythmic LCRs continued)?
**A.** excitation failure
